22 compounds from US8642657B2 (Gruenenthal GmbH, priority 2003, dated 2014) can be followed below.

Data set [1] concerns the target T1, rat VR1 (Rattus norvegicus, UniProt O35433).
T1 construct: expressed in transfected cells
In words: [3H]resiniferatoxin (RTX) competition binding assay, VR1-transfected CHO cells. Conditions: for Ki: competition with [3H]RTX, rat VR1 in CHO cells, read-out: Ki (nM) Binding Affinity. The protocol: The pUHG102 VR1 plasmid was transfected into CHO cells containing the pTet Off regulatory plasmid (Clontech). In these cells, expression of the VR1 is repressed in the presence of tetracycline but is induced upon removal of the antibiotic. Stable clones were isolated in culture medium containing puromycin (10 μg/mL) and maintained in HAM F12 medium supplemented with tetracycline (1 μg/mL), 5 μg/ml geniticin, 25 mM HEPES, 10% FBS. Cells utilized for assays were grown in culture medium without antibiotic for 48 h before use. Cells were seeded in T75 cell culture flasks in media without antibiotics and grown to approximately 90% confluence. The flasks were then washed with PBS and harvested in 0.25% trypsin, 1 mM EDTA. The cells were pelleted by gentle centrifugation and stored at −20° C. until assay.
Competition Binding Assay
Binding studies with [^3H]resiniferatoxin (RTX) were carried out as described previously with minor modifications (Szallasi et al., 1992). Binding assay mixtures were set up on ice and contained 50-100 pM [^3H]RTX, various concentrations of competing ligands, 0.25 mg/mL BSA (Cohn fraction V), and about 5×10^5 VR1-transfected cells. The final volume was adjusted to 350 μL with DPBS with Ca^2+ and Mg^2+ and 0.25 mg/mL bovine serum albumin. Non-specific binding was determined in the presence of 100 nM nonradioactive RTX. The binding reaction was initiated by transferring the assay mixtures to a 37° C. water bath and was terminated after a 60 min incubation period by cooling the tubes on ice. To reduce non-specific binding, 200 μg/ml α-glycoprotein was added. Membrane-bound RTX was then separated from the free by pelleting the membranes in a Beckman 12 benchtop centrifuge (15 min, maximal velocity), the tips of the tubes containing the pellets were cut off, and the radioactivity was determined by scintillation counting. Equilibrium binding parameters (Ki and cooperativity) were determined by fitting the Hill equation to the measured values with the aid of the program MicroCal Origin 6.0.
(§1) Initial stocks were dissolved in DMSO. For the binding assays, compounds were diluted in with DPBS with Ca^2+ and Mg^2+ and 0.25 mg/mL bovine serum albumin. For the calcium uptake assays, compounds were diluted in DMEM with 0.25 mg/mL bovine serum albumin.

For data set [2], the target named is T1, rat VR1. In words: 45Ca2+-uptake assay in CHO/VR1 cells, antagonism of capsaicin-stimulated uptake. It counts as cell-based. Conditions: 45Ca2+ uptake stimulated by 50 nM capsaicin. Here is the method:
as §1
Molecules were characterized to determine whether they were full agonists, partial agonists, or antagonists. For studies of ^45Ca^2+ uptake by CHO/VR1 cells (Tet-off cells), the cells were plated in 24-well plates to yield a cell density 20-40% of that required to produce confluence. The next day the medium was changed to remove the tetracycline and induce VR1 expression. Experiments were performed approximately 36-40 hours after induction. For ^45Ca^2+ uptake assay, cells were incubated for 5 min at 37° C. in a total volume of 400 μL of serum free DMEM (containing 1.8 mM CaCl2) in the presence of 0.25 mg/mL BSA (Sigma), 1 μCi/mL ^45Ca^2+ (5-30 Ci/g from ICN, CA), and increasing concentrations of the compound to be tested. Immediately after the incubation, extracellular ^45Ca^2+ was removed by washing the cells three times with cold DPBS (containing 1.8 mM CaCl2). Then 400 μl RIPA buffer (50 mM Tris pH 7.4; 150 mM NaCl; 1% Triton X-100; 0.1% SDS; 1% sodium deoxycholate) was added to each well in order to lyse the cells. Plates were shaken slowly for 20 min; then 306 μL of cell lysate was transferred from each well into a scintillation vial and radioactivity was determined by scintillation counting. For each data point in each experiment, four wells were assayed. Data from these experiments were analyzed by computer fit to the Hill equation. At least 3 separate experiments were carried out for each compound. In order to determine antagonist activity, studies were performed in exactly the same fashion with the exception that 50 nM capsaicin was added to the assay mixture to stimulate ^45Ca^2+ uptake.

pKi: −log10 of the molar value.

T1 sequence (O35433 whole entry): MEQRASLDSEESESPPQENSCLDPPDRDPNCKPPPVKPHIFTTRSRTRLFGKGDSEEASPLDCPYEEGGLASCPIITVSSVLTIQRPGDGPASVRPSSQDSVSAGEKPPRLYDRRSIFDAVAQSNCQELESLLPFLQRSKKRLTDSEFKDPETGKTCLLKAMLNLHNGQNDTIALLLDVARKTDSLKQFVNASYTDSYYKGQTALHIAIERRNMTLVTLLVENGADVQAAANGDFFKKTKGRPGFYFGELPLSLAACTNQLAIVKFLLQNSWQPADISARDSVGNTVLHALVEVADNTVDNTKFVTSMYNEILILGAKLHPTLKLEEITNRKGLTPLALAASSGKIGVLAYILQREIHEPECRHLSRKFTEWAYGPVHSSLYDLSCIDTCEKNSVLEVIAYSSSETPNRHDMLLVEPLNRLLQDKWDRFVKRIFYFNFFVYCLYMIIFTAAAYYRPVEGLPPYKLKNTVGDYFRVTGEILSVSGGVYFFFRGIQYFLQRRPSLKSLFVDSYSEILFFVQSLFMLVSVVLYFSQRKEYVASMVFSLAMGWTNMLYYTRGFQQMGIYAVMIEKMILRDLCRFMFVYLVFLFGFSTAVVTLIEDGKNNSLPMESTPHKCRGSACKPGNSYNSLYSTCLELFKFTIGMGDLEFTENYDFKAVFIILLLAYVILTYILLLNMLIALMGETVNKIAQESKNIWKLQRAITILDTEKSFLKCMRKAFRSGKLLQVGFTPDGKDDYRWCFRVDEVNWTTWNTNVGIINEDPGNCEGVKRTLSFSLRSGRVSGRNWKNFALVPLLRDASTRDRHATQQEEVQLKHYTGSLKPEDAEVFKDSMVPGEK

Regarding `COc1cc(C(C)C(=O)NCc2ccc(C(C)(C)C)cc2)ccc1NS(C)(=O)=O` (stereo not drawn) [1-65, N-(4-tert-Butylbenzyl)-2-[3-methoxy-4-(methylsulfonylamino)phenyl]propionamide], the melting point (usually the temperature of the solid-liquid transition) is 74 to 76 °C. The Ki (usually the equilibrium dissociation constant of an inhibitor or competing ligand from its target) at rat VR1 [1] is 536 nM. At rat VR1 [2], the Ki came out at 232 nM.

`CC(C(=O)NCc1ccc(C(C)(C)C)cc1)c1ccc(NS(C)(=O)=O)cc1F` (stereo not drawn) [1-66, N-(4-tert-Butylbenzyl)-2-[2-fluoro-4-(methylsulfonylamino)phenyl]propionamide]: the melting point lay in the range of 111 to 113 °C. In addition, the inhibition constant (Ki) on rat VR1 [1] is 358 nM. The same compound gave a Ki at rat VR1 [2] of 120 nM.

The compound `CC(C(=O)NCc1ccc(C(C)(C)C)cc1)c1ccc(NS(C)(=O)=O)cc1Cl` (stereo not drawn) [1-67, N-(4-tert-Butylbenzyl)-2-[2-chloro-4-(methylsulfonylamino)phenyl]propionamide] had a melting point of 134 to 136 °C. Besides, the Ki on rat VR1 [1] is 1420 nM. This compound registered a Ki on rat VR1 [2] of 4480 nM.

`CC(C(=O)NCc1ccc(C(C)(C)C)cc1)c1ccc(NS(C)(=O)=O)cc1` (stereo not drawn) [2-7, N-(4-tert-Butylbenzyl)-2-[4-(methylsulfonylamino)phenyl]propionamide] had a melting point of 77 to 79 °C. The inhibitory constant (Ki) on rat VR1 [1] was found to be 105 nM. The compound further had an inhibition constant Ki on rat VR1 [2] of 17.5 nM.

`CC(C(=O)NCc1ccc(Cl)cc1)c1ccc(NS(C)(=O)=O)cc1` (stereo not drawn) [2-8, N-(4-Chlorobenzyl)-2-[4-(methylsulfonylamino)phenyl]propionamide] yielded a melting point of 164 °C. On rat VR1 [1], the pKi (usually the negative decadic logarithm of the Ki, by convention in mol/L) was 5.46. For the same compound, the Ki on rat VR1 [2] is 1090 nM.

As to `CC(C(=O)NCc1ccc(Cl)c(Cl)c1)c1ccc(NS(C)(=O)=O)cc1` (stereo not drawn) [2-9, N-(3,4-Dichlorobenzyl)-2-[4-(methylsulfonylamino)phenyl]propionamide], the melting point worked out at 130 °C. In addition, the pKi on rat VR1 [1] was 5.78. On rat VR1 [2], this compound returned a Ki of 253 nM.

Take `CC(C(=O)NCc1ccc(Cl)cc1)c1ccc(NS(C)(=O)=O)c(F)c1` (stereo not drawn) [4-1, N-(4-Chlorobenzyl)-2-[3-fluoro-4-(methylsulfonylamino)phenyl]propionamide]: the melting point was 129 to 130 °C. Also, the Ki at rat VR1 [1] stood at 1060 nM. The compound further displayed a Ki on rat VR1 [2] of 367 nM.

On to `CC(C(=O)NCc1ccc(Cl)cc1)c1ccc(NS(C)(=O)=O)c(Cl)c1` (stereo not drawn) [4-2, N-(4-Chlorobenzyl)-2-[3-chloro-4-(methylsulfonylamino)phenyl]propionamide], for which the melting point lay within 134 to 135 °C. Also, on rat VR1 [1], the negative-log Ki (pKi) was 6.14. Moreover, on rat VR1 [2], affinity was put at a Ki of 447 nM.

Regarding `CC(C(=O)NCc1ccc(Cl)cc1)c1ccc(NS(C)(=O)=O)c(Br)c1` (stereo not drawn) [4-3, N-(4-Chlorobenzyl)-2-[3-bromo-4-(methylsulfonylamino)phenyl]propionamide], the melting point worked out at 147 °C. The same compound had a pKi at rat VR1 [1] of 6.27. Moreover, the affinity at rat VR1 [2], expressed as Ki, was 296 nM.

Compound `CC(C(=O)NCc1ccc(Cl)c(Cl)c1)c1ccc(NS(C)(=O)=O)c(F)c1` (stereo not drawn) [4-4, N-(3,4-Dichlorobenzyl)-2-[3-fluoro-4-(methylsulfonylamino)phenyl]propionamide] came in with a melting point of 130 to 133 °C. Further, the inhibition constant Ki at rat VR1 [1] worked out at 199 nM. Besides, the Ki at rat VR1 [2] stood at 115 nM.

For the compound `CC(C(=O)NCc1ccc(Cl)c(Cl)c1)c1ccc(NS(C)(=O)=O)c(Cl)c1` (stereo not drawn) [4-5, N-(3,4-Dichlorobenzyl)-2-[3-chloro-4-(methylsulfonylamino)phenyl]propionamide], the melting point fell in the range of 129 to 130 °C. This compound also showed a pKi at rat VR1 [1] of 6.54. On rat VR1 [2], this compound gave an inhibition constant (Ki) of 176 nM.

With `CC(C(=O)NCc1ccc(Cl)c(Cl)c1)c1ccc(NS(C)(=O)=O)c(Br)c1` (stereo not drawn) [4-6, N-(3,4-Dichlorobenzyl)-2-[3-bromo-4-(methylsulfonylamino)phenyl]propionamide], the melting point lay within 161 to 162 °C. The compound further had a pKi on rat VR1 [1] of 6.65. On rat VR1 [2], this compound came in with a Ki of 89.6 nM.

Turning to `CC(C)c1ccc(CNC(=O)C(C)c2ccc(NS(C)(=O)=O)c(F)c2)cc1` (stereo not drawn) [4-8, N-(4-Isopropylbenzyl)-2-[3-fluoro-4-(methylsulfonylamino)phenyl]propionamide], the melting point fell in the range of 137 to 139 °C. Also, the inhibition constant (Ki) at rat VR1 [1] came to 127 nM. The same compound gave a Ki on rat VR1 [2] of 143 nM.

`CC(C(=O)NCc1ccc(C(F)(F)F)cc1)c1ccc(NS(C)(=O)=O)c(F)c1` (stereo not drawn) [4-10, N-(4-Trifluoromethylbenzyl)-2-[3-fluoro-4-(methylsulfonylamino)phenyl]propionamide] had a melting point of 150 to 152 °C. Besides, the Ki on rat VR1 [1] turned out to be 657 nM. Moreover, the Ki on rat VR1 [2] was 274 nM.

`CC(C(=O)NCc1ccc(-c2ccccc2)cc1)c1ccc(NS(C)(=O)=O)c(F)c1` (stereo not drawn) [4-11, N-(4-Biphenylmethyl)-2-[3-fluoro-4-(methylsulfonylamino)phenyl]propionamide] showed a melting point of 155 to 157 °C. For the same compound, the Ki at rat VR1 [1] was determined as 1750 nM. Also, at rat VR1 [2], the Ki stood at 261 nM.

`CC(C(=O)NCc1cccc2ccccc12)c1ccc(NS(C)(=O)=O)c(F)c1` (stereo not drawn) [4-12, N-(1-Naphthylmethyl)-2-[3-fluoro-4-(methylsulfonylamino)phenyl]propionamide] showed a melting point of 159 to 161 °C. Besides, at rat VR1 [1], the inhibitory constant (Ki) amounted to 959 nM. At rat VR1 [2], this compound returned an inhibitory constant (Ki) of 239 nM.

Compound `CC(C(=O)NCCc1ccc(C(C)(C)C)cc1)c1ccc(NS(C)(=O)=O)c(F)c1` (stereo not drawn) [4-14, N-[2-(4-t-Butylphenyl)ethyl]-2-[3-fluoro-4-(methylsulfonylamino)phenyl]propionamide] came in with a melting point of 124 to 126 °C. For the same compound, the Ki on rat VR1 [1] was 553 nM. On rat VR1 [2], this compound came in with a Ki of 42.6 nM.

Compound `CC(C(=O)NCC(c1ccccc1)c1ccccc1)c1ccc(NS(C)(=O)=O)c(F)c1` (stereo not drawn) [4-23, N-(2,2-Diphenylethyl)-2-[3-fluoro-4-(methylsulfonylamino)phenyl]propionamide] gave a melting point of 129 °C. For the same compound, the Ki at rat VR1 [1] came to 1700 nM. Further, the inhibition constant (Ki) on rat VR1 [2] worked out at 2490 nM.

As for `CC(C(=O)NCCC(c1ccccc1)c1ccccc1)c1ccc(NS(C)(=O)=O)c(F)c1` (stereo not drawn) [4-24, N-(3,3-Diphenylpropyl)-2-[3-fluoro-4-(methylsulfonylamino)phenyl]propionamide], the melting point was 66 to 68 °C. The pKi at rat VR1 [1] is 6.89. On rat VR1 [2], this compound yielded a Ki of 36.6 nM.

Compound `Cc1ccc(C(=CCNC(=O)C(C)c2ccc(NS(C)(=O)=O)c(F)c2)c2ccc(C)cc2)cc1` (stereo not drawn) [4-26, N-[3,3-Di(4-methylphenyl)-2-propenyl]-2-[3-fluoro-4-(methylsulfonylamino)phenyl]propionamide] showed a melting point of 163 to 165 °C. The same compound showed a pKi at rat VR1 [1] of 7.44. Moreover, on rat VR1 [2], the Ki stood at 8.03 nM.

For the compound `CC(C(=O)NCC=C(c1ccc(F)cc1)c1ccc(F)cc1)c1ccc(NS(C)(=O)=O)c(F)c1` (stereo not drawn) [4-27, N-[3,3-Di(4-fluorophenyl)-2-propenyl]-2-[3-fluoro-4-(methylsulfonylamino)phenyl]propionamide], the melting point lay in the range of 57 to 60 °C. The Ki at rat VR1 [1] came out at 43.3 nM. Also, the Ki on rat VR1 [2] is 29.3 nM.

For the compound `CC(C(=O)NCC=C1c2ccccc2CCc2ccccc21)c1ccc(NS(C)(=O)=O)c(F)c1` (stereo not drawn) [4-28, N-[2-(10,11-Dihydro-5H-dibenzo[a,d]cyclohepten-5-yliden)ethyl]-2-[3-fluoro-4-(methylsulfonylamino)phenyl]propionamide], the melting point was 67 to 69 °C. At rat VR1 [1], the Ki is 141 nM. The same compound yielded a Ki on rat VR1 [2] of 121 nM.
